Data published in patent US11407740B2 (priority 2018, dated 2022).
Values after ≈ are worked out from the molar mass of the structure shown.

Each molecule was assayed on E. coli (assay: Bacterial susceptibility testing, MIC by broth microdilution (CLSI)). Conditions: Escherichia coli, read-out: E. coli MIC, broth microdilution, 35° C., 18-24 h.
`NCC(Cc1nc[nH]c(=O)c1O)c1ccc(C#Cc2ccc(CN3CCOCC3)cc2)cc1` (centres unmarked) [Compound 18] gave an MIC of 1 to 8 µg/mL (≈ 2.25 to 18 µM). `O=c1[nH]cnc(CC(CO)c2ccc(C#Cc3ccc(CN[C@@H]4CCS(=O)(=O)C4)cc3)cc2)c1O` (single isomer, unassigned) [Compound 40] was tested, and the MIC was 1 to 8 µg/mL (≈ 2.03 to 16.2 µM). For `O=c1[nH]cnc(CC(NCCCF)c2ccc(C#Cc3ccc(CN4CCOCC4)cc3)cc2)c1O` (centres unmarked) [Compound 139], the MIC was less than 1 µg/mL. Work on `O=c1[nH]cnc(CC(CO)c2ccc(C#Cc3ccc(CNCC4CC4)cc3)cc2)c1O` (centres unmarked) [Compound 58] yielded an MIC of 1 to 8 µg/mL (≈ 2.33 to 18.6 µM). `O=c1[nH]cnc(C[C@@H](CN2CC(F)C2)c2ccc(C#Cc3ccc(CN4CCOCC4)cc3)cc2)c1O` (single isomer, unassigned) [Compound 215] was tested, and the MIC was less than 1 µg/mL. `CN1CCN(C(=O)c2ccc(C#Cc3ccc(C(CO)Cc4nc[nH]c(=O)c4O)cc3)cc2)CC1` (centres unmarked) [Compound 59] gave an MIC of 1 to 8 µg/mL (≈ 2.12 to 16.9 µM). In the case of `C[C@@H](CC#N)NCC(Cc1nc[nH]c(=O)c1O)c1ccc(C#Cc2ccc(CN3CCOCC3)cc2)cc1` (single isomer, unassigned) [Compound 98], the MIC is reported as less than 1 µg/mL. `O=c1[nH]cnc(CC(CN2CCC2)c2ccc(C#Cc3ccc(CN4CCOCC4)cc3)cc2)c1O` (centres unmarked) [Compound 177] was tested, and the MIC was less than 1 µg/mL. `CN(Cc1ccc(C#Cc2ccc(C(CO)Cc3nc[nH]c(=O)c3O)cc2)cc1)[C@@H]1CCNC1` (mixture of isomers) [Compound 260] showed an MIC of 1 to 8 µg/mL. Molecule `COC1CN(Cc2ccc(C#Cc3ccc([C@H](Cc4nc[nH]c(=O)c4O)CN4CC(C#N)C4)cc3)cc2)C1` (single isomer, unassigned) [Compound 218] has an MIC of less than 1 µg/mL. Molecule `C[C@@H](CO)NCC(Cc1nc[nH]c(=O)c1O)c1ccc(C#Cc2ccc(CN3CCOCC3)cc2)cc1` (mixture of isomers) [Compound 167] has an MIC of less than 1 µg/mL. `N#C[C@@H]1CCN(Cc2ccc(C#Cc3ccc(C(CO)Cc4nc[nH]c(=O)c4O)cc3)cc2)C1` (some centres unmarked) [Compound 36] gave an MIC of less than 1 µg/mL. `NCC(=O)N1CCC(C#Cc2ccc(C(CO)Cc3nc[nH]c(=O)c3O)cc2)CC1` (centres unmarked) [Compound 263] showed an MIC greater than 32 µg/mL. Work on `CC(F)CNCC(Cc1nc[nH]c(=O)c1O)c1ccc(C#Cc2ccc(CN3CCOCC3)cc2)cc1` (centres unmarked) [Compound 74] yielded an MIC of less than 1 µg/mL. Molecule `COC(=O)C(Cc1nc[nH]c(=O)c1O)c1ccc(C#Cc2ccc(CN3CCOCC3)cc2)cc1` (centres unmarked) [Compound 24] has an MIC of less than 1 µg/mL. In the case of `CN1CC[C@@H](NCc2ccc(C#Cc3ccc(C(CO)Cc4nc[nH]c(=O)c4O)cc3)cc2)C1` (mixture of isomers) [Compound 261], the MIC is reported as 1 to 8 µg/mL. Work on `O=C(CO)N1CC[C@@H](NCc2ccc(C#Cc3ccc(C(CO)Cc4nc[nH]c(=O)c4O)cc3)cc2)C1` (mixture of isomers) [Compound 44] yielded an MIC of less than 1 µg/mL. In the case of `N#CCCNCC(Cc1nc[nH]c(=O)c1O)c1ccc(C#Cc2ccc(CN3CC(CC#N)C3)cc2)cc1` (centres unmarked) [Compound 134], the MIC is reported as 8 to 32 µg/mL (≈ 15.8 to 63.2 µM). `O=c1[nH]cnc(CC(CO)c2ccc(C#Cc3ccc(CN4CCOCC4)cc3)cc2)c1O` (centres unmarked) [Compound 2] showed an MIC of less than 1 µg/mL. `COC(=O)C(Cc1nc[nH]c(=O)c1O)N1Cc2cc(C#Cc3ccc(CN4CCOCC4)cc3)cn2C1=O` (centres unmarked) [Compound 192] showed an MIC of 1 to 8 µg/mL (≈ 1.93 to 15.5 µM). `O=C(NCC(F)F)C(Cc1nc[nH]c(=O)c1O)c1ccc(C#Cc2ccc(CN3CCOCC3)cc2)cc1` (centres unmarked) [Compound 22] gave an MIC of less than 1 µg/mL. For `O=c1[nH]cnc(CC(CO)c2ccc(C#Cc3ccc(CN[C@@H]4CCOC4)cc3)cc2)c1O` (mixture of isomers) [Compound 11], the MIC was less than 1 µg/mL.

Same assay, conditions: broth microdilution, 35° C., 18-24 h
With `O=c1[nH]cnc(CC(CO)c2ccc(C#Cc3ccc(CN[C@H]4CCOC4)cc3)cc2)c1O` (single isomer, unassigned) [Compound 9] the “E. coli MIC” value was “B (B: >1 μg/mL to ≤8.0 μg/mL)”. With `O=c1[nH]cnc(CC(CNCCCF)c2ccc(C#Cc3ccc(CN4CCOCC4)cc3)cc2)c1O` (centres unmarked) [Compound 107] the “E. coli MIC” value was “A (A: ≤1 μg/mL)”. With `O=c1[nH]cnc(CC(CN[C@@H]2CCOC2)c2ccc(C#Cc3ccc(CN4CCOCC4)cc3)cc2)c1O` (single isomer, unassigned) [Compound 163] the “E. coli MIC” value was “A (A: ≤1 μg/mL)”. For `CC(=O)N1CC[C@@H](NCc2ccc(C#Cc3ccc(C(CO)Cc4nc[nH]c(=O)c4O)cc3)cc2)C1` (single isomer, unassigned) [Compound 234], the “E. coli MIC” value was “A (A: ≤1 μg/mL)”.
